For 19 compounds, IC50 and Selectivity results are on record in EP4755886A1 (Chengdu Chipscreen Pharmaceutical Ltd., priority 2023, dated 2025).

The structures appear in SMILES notation.

For one experiment, the system named is MTAP^-/- HCT-116 cells. The experiment in a line: Cell proliferation (MTS), MTAP-/- HCT-116. Format: cell-based, human. The conditions noted are these: for IC50: Homo sapiens, 240 h, MTAP-/- HCT-116, 10 days with compound, MTS reading, read-out: IC50 HCT116 MTAP-/-; for Selectivity: HCT116 WT IC50 relative to HCT116 MTAP-/- IC50. The source says:
The colon cancer cell strain HCT-116 (purchased from Nanjing Cobioer) was co-transfected with the gene editing tool CRISPR/Cas9 and sgRNA, and the MTAP^-/- HCT-116 cell strain with biallelic inactivation of MTAP was obtained by assays such as Western Blotting and Sanger sequencing. The MTAP^-/- HCT-116 cell strain was used for compound selectivity screening and evaluation based on the synergistic mechanism of MTAP deletion and PRMT5, including a symmetric dimethylarginine (SDMA) level test, a cell proliferation test, and the like.
On day 0, MTAP^-/- HCT-116 cells or wild-type HCT-116 cells were added to a 96-well cell culture plate (Corning, 3599) at 100 cells/well, and the plate was incubated in an incubator at 37 °C with 5% CO2. The compound was diluted in a 3-fold gradient with DMSO (Sigma, D5879) (initial concentration: 20 µM, 3-fold dilution, 8 concentration points in total). On day 1, the compound was diluted to multiple concentration points, and the cells were treated separately and incubated in the incubator at 37 °C with 5% CO2 for another 10 days. On Day 11, 20 µL of MTS (CellTiter 96® AQueous One Solution Cell Proliferation Assay) (Promega, G3581) was added to each well. […] In the formula, Y represents the inhibition rate, X represents the logarithm of the compound concentration, Top represents the maximum response (the inhibition rate at the maximum compound concentration), Bottom represents the baseline response (the inhibition rate where the compound concentration was 0), Hill Slope represents the slope of the IC50 curve, and IC50 represents the half maximal inhibitory concentration.

The subject of a further experiment is wild-type HCT-116 cells. The experiment in a line: Cell proliferation (MTS), wild-type HCT-116. Format: cell-based. The conditions noted are these: Homo sapiens, 240 h; wild-type HCT-116, 10 days with compound, MTS reading; read-out: IC50 HCT116 WT. The procedure:
MTAP^-/- HCT-116 and wild-type HCT-116 cell strains were cultured in complete medium McCoy's 5A (Gibco, 16600082)/10% FBS (Gibco, 10099141C)/1% p/s (Gibco, 15140122) to evaluate the enhanced inhibitory effect of the compounds against the proliferation selectivity of MTAP^-/- HCT-116 cells. On day 0, MTAP^-/- HCT-116 cells or wild-type HCT-116 cells were added to a 96-well cell culture plate (Corning, 3599) at 100 cells/well, and the plate was incubated in an incubator at 37 °C with 5% CO2. The compound was diluted in a 3-fold gradient with DMSO (Sigma, D5879) (initial concentration: 20 µM, 3-fold dilution, 8 concentration points in total). On day 1, the compound was diluted to multiple concentration points, and the cells were treated separately and incubated in the incubator at 37 °C with 5% CO2 for another 10 days. On Day 11, 20 µL of MTS (CellTiter 96® AQueous One Solution Cell Proliferation Assay) (Promega, G3581) was added to each well. […] In the formula, Y represents the inhibition rate, X represents the logarithm of the compound concentration, Top represents the maximum response (the inhibition rate at the maximum compound concentration), Bottom represents the baseline response (the inhibition rate where the compound concentration was 0), Hill Slope represents the slope of the IC50 curve, and IC50 represents the half maximal inhibitory concentration. Table 1. IC50 (µM)

Turning to `CN(C(=O)c1cc2c3c(c(N)nc2cc1Cl)COC3)[C@@H]1COc2cc(C#Cc3cnn(C(F)F)c3)ccc21` [Compound 73A, (S)-4-amino-7-chloro-N-(6-((1-(difluoromethyl)-1H-pyrazol-4-yl)ethynyl)-2,3-dihydrobenzofuran-3-yl)-N-methyl-1,3-dihydrofuro[3,4-c]quinoline-8-carboxamide], the IC50 in the experiment with MTAP^-/- HCT-116 cells worked out at 11 nM.

Consider `CCn1cc(C#Cc2ccc3c(c2)OC[C@H]3N(C)C(=O)c2cc3c4c(c(N)nc3cc2Cl)COC4)cn1` [Compound 69A, (S)-4-amino-7-chloro-N-(6-((1-ethyl-1H-pyrazol-4-yl)ethynyl)-2,3-dihydrobenzof uran-3-yl)-N-methyl-1,3-dihydrofuro[3,4-c]quinoline-8-carboxamide], for which the IC50 in the experiment with wild-type HCT-116 cells amounted to 864 nM; in the experiment with MTAP^-/- HCT-116 cells, 5 nM. Also, the Selectivity in the experiment with MTAP^-/- HCT-116 cells is recorded as 173.

For `Cc1cc2nc(N)c3cnn(C)c3c2cc1C(=O)N(C)C1COc2cc(C#Cc3cnn(C4CC4)c3)ccc21` (stereo not drawn) [Compound 11, 4-amino-N-(6-((1-cyclopropyl-1H-pyrazol-4-yl)ethynyl)-2,3-dihydrobenzofuran-3-yl)-N,1,7-trimethyl-1H-pyrazolo[4,3-c]quinoline-8-carboxamide], the IC50 in the experiment on wild-type HCT-116 cells was 185 nM; with MTAP^-/- HCT-116 cells it was 3 nM. The Selectivity with MTAP^-/- HCT-116 cells turned out to be 62.

Take `CN(C(=O)c1ccc2nc(N)c3cnn(C)c3c2c1)[C@@H]1COc2cc(C#Cc3cnn(C(F)F)c3)ccc21` [Compound 30A, (S)-4-amino-N-(6-((1-(difluoromethyl)-1H-pyrazol-4-yl)ethynyl)-2,3-dihydrobenzofuran-3-yl)-N,1-dimethyl-1H-pyrazolo[4,3-c]quinoline-8-carboxamide]: the IC50 in the experiment on wild-type HCT-116 cells is 240 nM; in the experiment on MTAP^-/- HCT-116 cells, 2.9 nM. The Selectivity in the experiment on MTAP^-/- HCT-116 cells is recorded as 83.

Take `Cc1cc2nc(N)c3cnn(C)c3c2cc1C(=O)N(C)C1COc2cc(C#Cc3cnn(C)c3)ccc21` (stereo not drawn) [Compound 10, 4-amino-N,1,7-trimethyl-N-(6-((1-methyl-1H-pyrazol-4-yl)ethynyl)-2,3-dihydrobenzofuran-3-yl)-1H-pyrazolo[4,3-c]quinoline-8-carboxamide]: the IC50 in the experiment with wild-type HCT-116 cells turned out to be 162 nM. Besides, in the experiment on MTAP^-/- HCT-116 cells, the Selectivity is given as 81 and the IC50 was 2 nM.

In the case of `Cc1cncc(C#Cc2ccc3c(c2)OC[C@H]3N(C)C(=O)c2cc3c(cc2Cl)nc(N)c2cnn(C)c23)c1` [Compound 65A, (S)-4-amino-7-chloro-N,1-dimethyl-N-(6-((5-methylpyridin-3-yl)ethynyl)-2,3-dihydrobenzofuran-3-yl)-1H-pyrazolo[4,3-c]quinoline-8-carboxamide], the IC50 in the experiment with wild-type HCT-116 cells was determined as 141 nM. Moreover, in the experiment on MTAP^-/- HCT-116 cells, the Selectivity is given as 71 and the IC50 stood at 2 nM.

Regarding `CN1CCn2c(C#Cc3ccc4c(c3)OC[C@H]4N(C)C(=O)c3cc4c(cc3Cl)nc(N)c3cnn(C)c34)cnc2C1` [Compound 51A, (S)-4-amino-7-chloro-N,1-dimethyl-N-(6-((7-methyl-5,6,7,8-tetrahydroimidazo[1,2-a]pyrazin-3-yl)ethynyl)-2,3-dihydrobenzofuran-3-yl)-1H-pyrazolo[4,3-c]quinoline-8-carboxamide], the IC50 in the experiment on MTAP^-/- HCT-116 cells worked out at 1 nM.

`CN(C(=O)c1cc2c(cc1F)nc(N)c1cnn(C)c12)[C@@H]1COc2cc(C#Cc3ccc(C4CC4)nc3)ccc21` [Compound 77A, (S)-4-amino-N-(6-((6-cyclopropylpyridin-3-yl)ethynyl)-2,3-dihyrobenzofuran-3-yl)-7-fluoro-N,1-dimethyl-1H-pyrazolo[4,3-c]quinoline-8-carboxamide]: the IC50 with MTAP^-/- HCT-116 cells was 11 nM.

For the compound `CN1CCn2c(C#Cc3ccc4c(c3)OCC4N(C)C(=O)c3cc4c(cc3F)nc(N)c3cnn(C)c34)cnc2C1` (stereo not drawn) [Compound 46, 4-amino-7-fluoro-N,1-dimethyl-N-(6-((7-methyl-5,6,7,8-tetrahydroimidazo[1,2-a]pyrazin-3-yl)ethynyl)-2,3-dihydrobenzofuran-3-yl)-1H-pyrazolo[4,3-c]quinoline-8-carboxamide], in the experiment on wild-type HCT-116 cells, the IC50 is 467 nM. Moreover, in the experiment with MTAP^-/- HCT-116 cells, the Selectivity was 156 and the IC50 is 3 nM.

Turning to `CN(C(=O)c1cc2c3c(c(N)nc2cc1Cl)COC3)[C@@H]1COc2cc(C#Cc3cnn4c3CCC4)ccc21` [Compound 88A, (S)-4-amino-7-chloro-N-(6-((5,6-dihydro-4H-pyrrolo[1,2-b]pyrazol-3-yl)ethynyl)-2,3-dihydrobenzofuran-3-yl)-N-methyl-1,3-dihydrofuro[3,4-c]quinoline-8-carbox amide], in the experiment on wild-type HCT-116 cells, the IC50 came out at 777 nM. For the same compound, in the experiment on MTAP^-/- HCT-116 cells, the Selectivity came to 173 and the IC50 was 4.5 nM.

As to `CN(C(=O)c1cc2c(cc1F)nc(N)c1cnn(C)c12)[C@@H]1COc2cc(C#Cc3cccnc3F)ccc21` [Compound 54A, (S)-4-amino-7-fluoro-N-(6-((2-fluoropyridin-3-yl)ethynyl)-2,3-dihydrobenzofuran-3-yl)-N,1-dimethyl-1H-pyrazolo[4,3-c]quinoline-8-carboxamide], in the experiment with MTAP^-/- HCT-116 cells, the IC50 is 5.5 nM.

Take `Cc1nn(C)cc1C#Cc1ccc2c(c1)OCC2N(C)C(=O)c1cc2c(cc1Cl)nc(N)c1cnn(C)c12` (stereo not drawn) [Compound 26, 4-amino-7-chloro-N-(6-((1,3-dimethyl-1H-pyrazol-4-yl)ethynyl)-2,3-dihydrobenzofuran-3-yl)-N,1-dimethyl-1H-pyrazolo[4,3-c]quinoline-8-carboxamide]: the IC50 in the experiment with MTAP^-/- HCT-116 cells stood at 2.8 nM.

Consider `CCN(C(=O)c1cc2c(cc1Cl)nc(N)c1cnn(C)c12)C1COc2cc(C#Cc3cnn(C)c3)ccc21` (stereo not drawn) [Compound 28, 4-amino-7-chloro-N-ethyl-1-methyl-N-(6-((1-methyl-1H-pyrazol-4-yl)ethynyl)-2,3-dihydrobenzofuran-3-yl)-1H-pyrazolo[4,3-c]quinoline-8-carboxamide], for which the IC50 in the experiment on MTAP^-/- HCT-116 cells was 2.3 nM.

Take `CN(C(=O)c1cc2c(cc1F)nc(N)c1cnn(C)c12)C1COCc2cc(C#Cc3cnn(C)c3)ccc21` (stereo not drawn) [Compound 72, 4-amino-7-fluoro-N,1-dimethyl-N-(7-((1-methyl-1H-pyrazol-4-yl)ethynyl)isochroman-4-yl)-1H-pyrazolo[4,3-c]quinoline-8-carboxamide]: the IC50 in the experiment with MTAP^-/- HCT-116 cells turned out to be 6 nM.

For the compound `CN(C(=O)c1cc2c3c(c(N)nc2cc1F)COC3)[C@@H]1COc2cc(C#Cc3cnn(C)c3)ccc21` [Compound 39A, (S)-4-amino-7-fluoro-N-methyl-N-(6-((1-methyl-1H-pyrazol-4-yl)ethynyl)-2,3-dihydrobenzofuran-3-yl)-1,3-dihydrofuro[3,4-c]quinoline-8-carboxamide], the IC50 in the experiment on MTAP^-/- HCT-116 cells is 11 nM.

Consider `CCn1cc(C#Cc2ccc3c(c2)OCC3N(C)C(=O)c2cc3c(cc2Cl)nc(N)c2cnn(C)c23)cn1` (stereo not drawn) [Compound 15, 4-amino-7-chloro-N-(6-((1-ethyl-1H-pyrazol-4-yl)ethynyl)-2,3-dihydrobenzofuran-3-yl)-N,1-dimethyl-1H-pyrazolo[4,3-c]quinoline-8-carboxamide], for which the IC50 in the experiment with MTAP^-/- HCT-116 cells was 4.8 nM.

Regarding `CC(C)n1cc(C#Cc2ccc3c(c2)OCC3N(C)C(=O)c2cc3c(cc2Cl)nc(N)c2cnn(C)c23)cn1` (stereo not drawn) [Compound 14, 4-amino-7-chloro-N-(6-((1-isopropyl-1H-pyrazol-4-yl)ethynyl)-2,3-dihydrobenzof uran-3-yl)-N,1-dimethyl-1H-pyrazolo[4,3-c]quinoline-8-carboxamide], the IC50 in the experiment on MTAP^-/- HCT-116 cells stood at 9 nM.

Take `Cc1ncccc1C#Cc1ccc2c(c1)OC[C@H]2N(C)C(=O)c1cc2c(cc1Cl)nc(N)c1cnn(C)c12` [Compound 64A, (S)-4-amino-7-chloro-N,1-dimethyl-N-(6-((2-methylpyridin-3-yl)ethynyl)-2,3-dihydrobenzofuran-3-yl)-1H-pyrazolo[4,3-c]quinoline-8-carboxamide]: in the experiment with MTAP^-/- HCT-116 cells, the IC50 came out at 3 nM.

Regarding `Cc1nn(C)cc1C#Cc1ccc2c(c1)OC[C@H]2N(C)C(=O)c1cc2c(cc1Cl)nc(N)c1cnn(C)c12` [Compound 26A, (S)-4-amino-7-chloro-N-(6-((1,3-dimethyl-1H-pyrazol-4-yl)ethynyl)-2,3-dihydrobenzofuran-3-yl)-N,1-dimethyl-1H-pyrazolo[4,3-c]quinoline-8-carboxamide], the IC50 in the experiment on MTAP^-/- HCT-116 cells turned out to be 0.9 nM.
